Test results from patent US20110045032A1 (priority 2001, published 2011).

Legend:
Assay type in all cases: in vivo
[1] = system: dust mite-sensitized rabbits; experiment: BALF cell counts, intratracheal powder (Example 25)
Procedure: This study defines the effect of 7 days of treatment with DHEA-S on allergen-induced bronchial hyperresponsiveness (BHR), early and late phase responses, and pulmonary inflammation in dust mite-sensitized rabbits. Baseline BHR and inflammation were first determined. The following week, allergen challenge, pulmonary function testing and BALF were performed on the untreated rabbits. Histamine sensitivity was determined 24 hours post allergen challenge. Rabbits were rested for 3 weeks then baseline values were re-established. The following week, DHEA-S (5 mg/day) was delivered once a day for 7 days via an intratracheal powder injector through the endrotracheal tube of the anesthetized rabbit. On day 8, 24 hrs after the last treatment, allergen challenge, pulmonary function testing and BALF were performed as previously. On day 9, 24 hrs after allergen challenge, a histamine challenge was performed. The drug was not micronized prior to use thus only a portion of the administered date was expected to reach the deep lung. The study includes 4 animals studied under a crossover design. The treatment with DHEA-S led to changes in the disease status of the animals that are described in the following paragraph.

[2] = Acute inhalation toxicity in dogs; conditions: dog, in vivo, inhaled; preclinical toxicology studies; not achieved at this dose; read-out: maximum tolerated dose
Procedure: (§1) Other findings were minor in nature and detailed in the reports that follow. Therefore, nebulization of an aqueous solution was determined to be feasible but not practical due to the inability to achieve a sufficient safety factor to support clinical trials.

[3] = system: dogs; experiment: Acute inhalation toxicity in dogs; conditions: inhalation
Procedure: as §1

Compound: CC12CCC3C(CC=C4CC(OS(=O)(=O)[O-])CCC43C)C1CCC2=O.[Na+] (stereo not drawn) [DHEA-S, Dehydroepiandrosterone sulfate]
- neutrophils in BALF ([1]; 15 minutes after dust mite challenge, control 10.2): 1.3 ×10^4 cells/ml
- macrophages in BALF ([1]; 15 minutes after dust mite challenge, control 29.6): 19.4 ×10^4 cells/ml
- neutrophils in BALF ([1]; 6 hours after challenge, control 43.8): 32.2 ×10^4 cells/ml
- eosinophils in BALF ([1]; 24 hours after allergen challenge, control 3.2): 2.0 ×10^4 cells/ml
- macrophages in BALF ([1]; 24 hours after allergen challenge, control 24.1): 17.8 ×10^4 cells/ml
- inhibition of eosinophils ([1]; at 24 hours): slight mean inhibition
- MTD [2]: > 2 mg/kg/day
- maximum tolerated dose [3]: could not be achieved
- adverse effects to the respiratory tract ([3]; up to the maximum feasible dose): did not produce any adverse affects
